Experimental data reported in US8389565B2, “Glycosidase inhibitors and methods of synthesizing same” (Simon Fraser University, priority 2000, dated 2013).
Structures can show the parent of a compound that is named as a salt. Where two headings read alike, the source gives them in different places. Values belong to the compound of their own block, whether it stands above or below them.

Key:
[1] = target: T1, glucoamylase G2 form from Aspergillus niger (Aspergillus niger, UniProt P69328); experiment: Inhibition of glucoamylase G2-catalyzed hydrolysis of maltose; format: biochemical
T1 construct: purchased Novo Nordisk, Bagsvaerd, Denmark
Description: The glucoamylase G2 form from Aspergillus niger was purified from a commercial enzyme (Novo Nordisk, Bagsvaerd, Denmark) as described.^19,20 The initial rates of glucoamylase G2-catalyzed hydrolysis of maltose was tested with 1 mM maltose as substrate in 0.1 M sodium acetate pH 4.5 at 45° C. using an enzyme concentration of 7.0×10^−8 M and five inhibitor concentrations in the range 1 μm-5 mM. The effect of the inhibition on rates of substrate hydrolysis were compared for the different compounds.

[2] = target: T2, Recombinant barley α-amylase isozyme 1 (AMY1) (Hordeum vulgare, UniProt P00693); experiment: Inhibition of barley α-amylase isozyme 1 activity towards DP17 amylose; format: biochemical
T2 construct: made in house
Excerpt: (§1) Porcine pancreatic α-amylase (PPA) and bovine serum albumin (BSA) were purchased from Sigma. Amylose EX-1 (DP17; average degree of polymerization 17) was purchased from Hayashibara Chemical Laboratories (Okayama, Japan). Recombinant barley α-amylase isozyme 1 (AMY1) was produced and purified as described.^23 An aliquot of the porcine pancreatic x-amylase (PPA) crystalline suspension (in ammonium sulfate) was dialyzed extensively against the assay buffer without BSA. The enzyme concentration was determined by aid of amino acid analysis as determined using an LKB model Alpha Plus amino acid analyzer. […] Six different final inhibitor concentrations were used in the range 1 μM-5 mM. The inhibitor was pre-incubated with enzyme for 5 min at 37° C. before addition of substrate.

[3] = target: T3, porcine pancreatic α-amylase (PPA) (Sus scrofa, UniProt P00690); experiment: Inhibition of porcine pancreatic α-amylase activity towards DP17 amylose; format: biochemical
T3 construct: purchased Sigma
T3 sequence (P00690 16-511): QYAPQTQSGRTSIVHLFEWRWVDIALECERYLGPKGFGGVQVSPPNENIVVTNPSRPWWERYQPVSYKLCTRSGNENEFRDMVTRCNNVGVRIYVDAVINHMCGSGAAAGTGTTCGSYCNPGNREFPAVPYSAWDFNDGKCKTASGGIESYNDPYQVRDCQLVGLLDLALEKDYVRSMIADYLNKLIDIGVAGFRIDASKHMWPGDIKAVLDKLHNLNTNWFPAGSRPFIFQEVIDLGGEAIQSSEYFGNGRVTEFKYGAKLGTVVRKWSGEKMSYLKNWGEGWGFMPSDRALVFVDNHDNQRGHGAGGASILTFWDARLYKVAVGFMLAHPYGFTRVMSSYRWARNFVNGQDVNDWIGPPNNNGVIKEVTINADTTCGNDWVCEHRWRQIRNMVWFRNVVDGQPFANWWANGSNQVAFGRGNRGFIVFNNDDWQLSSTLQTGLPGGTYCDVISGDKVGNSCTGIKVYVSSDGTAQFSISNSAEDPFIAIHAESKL
Excerpt: as §1

[4] = target: T4, Maltase Glucoamylase (MGA) (Homo sapiens, UniProt O43451); experiment: MGA activity in extracts of COS cells transfected with MGA5′ (maltase subunit) construct, maltose hydrolysis, glucose oxidase colorimetric assay; format: biochemical; design: COS cells transfected with MGA5′ (maltase subunit clone 10) construct were used; expressed in transfected cells; host or cells: COS cells
Description: In the assays, COS cells transfected with MGA5′ (maltase subunit clone 10) construct were used. Activity measurements were performed with cell extracts containing MGA. Maltose hydrolysis was monitored by measurement of the glucose released by a glucose oxidase colorimetric assay. Inhibition of this hydrolysis was measured as a reduction in OD reading.
In practice, an OD reading in the absence of the inhibitor was recorded, followed by a reading in the presence of the inhibitor. The percent reduction in OD reading upon administering a candidate inhibitor (see Table 11) was then correlated with a percent inhibition for a given concentration.
Target sequence in this assay (O43451 356-737 limits assumed): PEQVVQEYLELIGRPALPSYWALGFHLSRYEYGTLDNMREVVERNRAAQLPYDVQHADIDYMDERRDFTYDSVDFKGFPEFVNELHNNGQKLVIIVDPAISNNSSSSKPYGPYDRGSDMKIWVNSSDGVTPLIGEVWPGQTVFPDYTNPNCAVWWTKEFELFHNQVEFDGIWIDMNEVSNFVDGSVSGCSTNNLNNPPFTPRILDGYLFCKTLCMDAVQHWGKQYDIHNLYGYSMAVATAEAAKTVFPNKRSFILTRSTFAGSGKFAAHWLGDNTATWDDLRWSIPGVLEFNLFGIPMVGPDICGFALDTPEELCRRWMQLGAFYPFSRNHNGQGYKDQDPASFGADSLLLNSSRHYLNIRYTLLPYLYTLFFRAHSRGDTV

[5] = target: T4, Maltase Glucoamylase (MGA); experiment: Inhibition of recombinant human maltase glucoamylase (MGA), maltose substrate, glucose oxidase readout; format: biochemical; conditions: for Ki: maltose substrate, 100 mM MES buffer pH 6.5, 37° C., read-out: Ki value against recombinant human maltase glucoamylase (MGA); for IC50: read-out: IC50 value against recombinant human MGA
Description: Enzyme Activity Assay. Analysis of MGA inhibition was performed using maltose as the substrate, and measuring the release of glucose. Reactions were carried out in 100 mM MES buffer pH 6.5 at 37° C. for 15 min. The reaction was stopped by boiling for 3 min. 20 μL aliquots were taken and added to […] of glucose oxidase assay reagent (Sigma) in a 96-well plate. Reactions were developed for 1 hour and absorbance was measured at 450 nm to determine the amount of glucose produced by MGA activity in the reaction. One unit of activity is defined as the hydrolysis of one […] of maltose per minute. All reactions were performed in triplicate and absorbance measurements were averaged to give a final result.
The program GraFit 4.0.14 was used to fit the data to the Michaelis-Menten equation and estimate the kinetic parameters, Km and Vmax, of the enzyme. Ki values for each inhibitor were determined by measuring the rate of maltose hydrolysis by MGA at varying inhibitor concentrations. Data were plotted in Lineweaver-Burk plots (1/rate vs. 1/[substrate]) and Ki values were determined by the equation Ki=Km[I]/(Vmax)m−Km, where “m” is the slope of the line. The Ki reported for each inhibitor was estimated by averaging the Ki values obtained from each of the different inhibitor concentrations.
Target sequence in this assay (O43451 87-954 limits assumed): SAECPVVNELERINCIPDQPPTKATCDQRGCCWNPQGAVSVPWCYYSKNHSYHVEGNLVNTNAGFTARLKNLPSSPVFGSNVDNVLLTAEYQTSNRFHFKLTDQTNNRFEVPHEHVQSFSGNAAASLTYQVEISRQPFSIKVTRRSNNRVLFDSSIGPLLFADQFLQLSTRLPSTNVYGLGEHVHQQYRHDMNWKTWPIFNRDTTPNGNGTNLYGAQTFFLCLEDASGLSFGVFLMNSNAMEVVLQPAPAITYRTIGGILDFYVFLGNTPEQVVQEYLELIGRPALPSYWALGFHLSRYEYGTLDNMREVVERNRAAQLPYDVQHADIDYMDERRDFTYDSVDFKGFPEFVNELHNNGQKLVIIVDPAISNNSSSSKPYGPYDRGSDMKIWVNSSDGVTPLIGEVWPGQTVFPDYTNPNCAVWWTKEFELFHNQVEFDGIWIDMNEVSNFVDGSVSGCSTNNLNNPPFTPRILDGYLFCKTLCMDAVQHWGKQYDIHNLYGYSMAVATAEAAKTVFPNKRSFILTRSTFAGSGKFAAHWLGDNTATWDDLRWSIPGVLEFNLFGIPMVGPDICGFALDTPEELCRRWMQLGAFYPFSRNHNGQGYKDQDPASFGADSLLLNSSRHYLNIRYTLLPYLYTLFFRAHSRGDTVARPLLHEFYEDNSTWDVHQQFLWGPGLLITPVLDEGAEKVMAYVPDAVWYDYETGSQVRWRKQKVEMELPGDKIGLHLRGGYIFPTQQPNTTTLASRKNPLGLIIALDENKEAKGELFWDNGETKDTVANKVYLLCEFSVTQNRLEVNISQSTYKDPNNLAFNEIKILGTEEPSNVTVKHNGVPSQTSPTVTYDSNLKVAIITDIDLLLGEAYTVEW

Sprague-Dawley rats = experiment: In vivo maltose gavage in catheterized rats: plasma glucose and insulin; design: species or system rat; conditions: maltose gavage 1000 mg/kg with 25 mg/kg drug
Description: Five week old Sprague-Dawley rats were housed singly under a 12:12-h light-dark photoperiod and given free access to water and rat chow (Purina rodent chow). After one week of acclimation, chronic indwelling catheters were implanted.
Animals were anesthetized with a combination of Ketamine-Xylazine-Butorphanol (0.1 ml/100 g im). Analgesic (Butorphenol, 1 mg/kg sc) was administered following recovery from anesthesia and the following morning. Antibiotic was administered by one dose sc and in the drinking water for 4 days post-operative (Baytril, 5 mg/kg sc, Bayer, Toronto, Canada; Baytril, 50 mg/ml: 0.36 ml solution in 250 ml drinking water). A sterile catheter (Intramedic PE-50 with ˜3 cm beveled Silastic tip) was placed in the left carotid artery and the distal end of the catheter was tunneled subcutaneously, exteriorized, and anchored at the nape of the neck. The catheters were protected from chewing by a stainless steel tether connected to a swivel system which allowed free movement of the animal and easy access to the catheter by the investigator.
The animals were allowed to recover for 1 week. Experiments were performed on conscious, unrestrained animals that had been fasted overnight by removal of chow from the cage hoppers at 2100. At 0800 the following morning animals were weighed and Atropine (0.05 mg/kg sc) was administered as a […]. At baseline, animals were administered a bolus of maltose by oral gavage (1000 mg/kg body weight) with or without drug (25 mg/kg body weight for all agents). Blood samples (0.1 mL) were taken via the implanted carotid line at -15 and -5 min for the baseline and at 7, 15, 30, 60, 90, 120, 210, 300 min.
Blood samples were kept on ice in microcentrifuge tubes and then were centrifuged. The plasma was stored at −20° C. until it was assayed. Plasma volume was triple replaced with heparinized saline (10u/mL), but red blood cells were not reinfused. Plasma glucose was assayed with the glucose oxidase method (Trinder RAICHEM Division of Hemagen Diagnostics, Inc. San Diego, Calif.). Plasma insulin concentrations were measured by rat insulin ELISA (Crystal Chem INC, Downers Grove, Ill.). Six experiments were performed for each treatment (control, Blintol, Acarbose, Salacinol).
All data are presented as means±SE. The significance of changes in plasma glucose and insulin were tested by two-way repeated-measures analysis of variance and were performed with the Statistical Analysis System for Windows (version 6.3, SAS Institute, Cary, N.C.). AUCs were compared using unpaired t-tests.

[6] = read-out: Ki AMY1 (Barley α-amylase)
[7] = read-out: Ki PPA (Porcine pancreatic α-amylase)

T2 sequence (P00693 25-438): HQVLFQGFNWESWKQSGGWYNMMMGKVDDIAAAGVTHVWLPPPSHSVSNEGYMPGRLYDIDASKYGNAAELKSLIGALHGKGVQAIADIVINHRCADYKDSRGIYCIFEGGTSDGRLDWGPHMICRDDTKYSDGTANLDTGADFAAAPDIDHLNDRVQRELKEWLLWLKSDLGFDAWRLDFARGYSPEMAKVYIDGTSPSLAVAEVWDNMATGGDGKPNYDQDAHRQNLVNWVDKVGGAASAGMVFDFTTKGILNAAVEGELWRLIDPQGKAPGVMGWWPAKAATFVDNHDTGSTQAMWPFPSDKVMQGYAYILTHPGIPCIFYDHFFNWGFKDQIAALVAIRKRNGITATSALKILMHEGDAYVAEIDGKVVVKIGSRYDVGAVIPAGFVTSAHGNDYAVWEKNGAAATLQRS
T1 sequence (P69328 other isoform, or with tags, fused parts or gaps): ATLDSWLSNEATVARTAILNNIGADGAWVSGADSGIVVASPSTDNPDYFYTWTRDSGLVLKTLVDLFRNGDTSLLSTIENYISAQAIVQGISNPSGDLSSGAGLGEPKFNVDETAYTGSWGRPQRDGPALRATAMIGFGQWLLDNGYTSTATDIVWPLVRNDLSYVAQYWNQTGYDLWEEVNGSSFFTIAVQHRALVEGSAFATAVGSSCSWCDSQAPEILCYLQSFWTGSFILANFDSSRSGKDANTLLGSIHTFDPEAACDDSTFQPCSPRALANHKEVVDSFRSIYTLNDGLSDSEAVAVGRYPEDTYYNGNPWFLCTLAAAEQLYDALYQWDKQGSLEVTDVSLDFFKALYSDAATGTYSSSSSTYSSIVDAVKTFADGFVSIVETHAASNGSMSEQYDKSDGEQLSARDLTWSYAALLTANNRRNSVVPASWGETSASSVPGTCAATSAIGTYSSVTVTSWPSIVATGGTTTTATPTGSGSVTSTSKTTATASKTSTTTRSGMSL

Compound: OC1C[S+]2CCCC2[C@@H](O)C1O (stereo partly shown)
- Ki ([1]; read-out: Ki GA (Glucoamylase)): 1320 µM
- Ki [2, 6]: > 5000 µM
- Ki [3, 7]: > 5000 µM

Compound: O=S(=O)([O-])O[C@H](CO)[C@@H](O)C[S@@+]1C[C@H](O)[C@@H](O)[C@@H]1CO
- Ki [1]: 2170 µM
- Ki [2, 6]: > 5000 µM
- Ki [3, 7]: > 5000 µM

Compound: O=S(=O)([O-])O[C@H](CO)[C@@H](O)C[S@+]1C[C@@H](O)[C@H](O)[C@H]1CO
- Ki [1]: 1060 µM
- Ki [2, 6]: > 5000 µM
- Ki [3, 7]: > 5000 µM

Compound: O=S(=O)(O)O[C@@H](CO)[C@H](O)CN1C[C@@H](O)[C@H](O)[C@H]1CO
- Ki ([1]; read-out: Ki GA (Glucoamylase)): > 2500 µM
- Ki MGA (Human intestinal maltase glucoamylase) ([4]; only the order of magnitude of activity (nM, μM, mM) or n.a. = not active): mM
- Ki [2, 6]: > 5000 µM
- Ki [3, 7]: > 5000 µM

Compound: O=S(=O)([O-])O[C@@H](CO)[C@H](O)C[S@+]1C[C@H](O)[C@@H](O)[C@H]1CO
- Ki [1]: > 5000 µM
- Ki [2, 6]: 109 µM
- Ki [3, 7]: 52 µM

Compound: O=S(=O)(O)O[C@@H](CO)[C@H](O)CN1C[C@H](O)[C@@H](O)[C@H]1CO
- Ki ([1]; read-out: Ki GA (Glucoamylase)): > 30000 µM
- Ki [2, 6]: > 5000 µM
- Ki [3, 7]: > 5000 µM

Compound: O=S(=O)([O-])O[C@H](CO)[C@@H](O)C[Se@+]1C[C@@H](O)[C@H](O)[C@H]1CO
- Ki ([1]; read-out: Ki GA (Glucoamylase)): > 9000 µM
- Ki [2]: > 5000 µM
- Ki [3]: > 5000 µM

- Ki [5]: 26 µM
Compound: O=S(=O)(O)OC(C(O)CN1CC(O)C(O)C1CO)C(O)C(O)CO (single isomer, unassigned) [Compound 193]

- Ki [5]: 5 µM
Compound: O=S(=O)(O)OC(C(O)CN1CC(O)C(O)C1CO)C(O)C(O)CO (single isomer, unassigned) [Compound 196]

- IC50 [5]: 100 µM
Compound: O=S(=O)(O)OC(C(O)CN1CC(O)C(O)C1CO)C(O)C(O)CO (single isomer, unassigned) [Compound 252]

- IC50 [5]: 30 µM
Compound: O=S(=O)(O)OC(C(O)CN1CC(O)C(O)C1CO)C(O)C(O)CO (single isomer, unassigned) [Compound 255]

- inhibition at 5 µM ([4]; 5 μM concentration, COS cell extracts containing MGA, read-out: percent inhibition of the breakdown of maltose): 4%
Compound: C[C@H]1O[C@H](O[C@H]2[C@H](O)[C@@H](O)[C@@H](O[C@H]3[C@H](O)[C@@H](O)C(O)O[C@@H]3CO)O[C@@H]2CO)[C@H](O)[C@@H](O)[C@@H]1N[C@H]1C=C(CO)[C@@H](O)[C@H](O)[C@H]1O (stereo partly shown) [Acarbose]
- time at which plasma glucose returned to basal (Sprague-Dawley rats): 90 min
- 15 minute glucose excursion from basal (Sprague-Dawley rats; mean ± SE, n=6): 34.2 ± 3.5 mg/dL
- decrease of the 90 minute insulin AUC (Sprague-Dawley rats; versus Control): 49%

- inhibitory activity against recombinant human MGA (in words) [5]: did not inhibit
Compound: O=S(=O)([O-])O[C@@H]([C@H](O)C[S@+]1C[C@@H](O)[C@H](O)[C@H]1CO)[C@@H](O)CO [Compound 94, 1,4-Dideoxy-1,4-[[2S,3R,4S-2,4,5-trihydroxy-3-(sulfooxy)pentyl]episufonium-ylidene]-D-arabinitol]

- inhibitory activity against recombinant human MGA (in words) [5]: active
Compound: O=S(=O)([O-])O[C@H]([C@H](O)[C@@H](O)CO)[C@H](O)C[S@+]1C[C@@H](O)[C@H](O)[C@H]1CO [Compound 95, 1,4-Dideoxy-1,4-[[2S,3R,4R,5S-2,4,5,6-tetrahydroxy-3-(sulfooxy)hexyl]episufonium-ylidene]-D-arabinitol]

- inhibitory activity against recombinant human MGA (in words) [5]: active
Compound: O=S(=O)([O-])O[C@@H]([C@H](O)[C@@H](O)CO)[C@H](O)C[S@+]1C[C@@H](O)[C@H](O)[C@H]1CO [Compound 96, 1,4-Dideoxy-1,4-[[2S,3S,4R,5S-2,4,5,6-tetrahydroxy-3-(sulfooxy)hexyl]episufonium-ylidene]-D-arabinitol]

- Ki [5]: 0.17 µM
Compound: O=S(=O)([O-])O[C@@H]([C@H](O)CO)[C@H](O)C[S@+]1C[C@@H](O)[C@H](O)[C@H]1CO [Compound 97, 1,4-Dideoxy-1,4-[[2S,3S,4R-2,4,5-trihydroxy-3-(sulfooxy)pentyl]episufonium-ylidene]-D-arabinitol]

- inhibitory activity against recombinant human MGA (in words) [5]: not active
Compound: O=S(=O)([O-])OC(C(O)C[S+]1CC(O)C(O)C1CO)C(O)C(O)CO [Compound 192, 1,4-Dideoxy-1,4-[[(2R,3S,4R,5R)-2,4,5,6-tetrahydroxy-3-(sulfooxy)hexyl]-episulfoniumylidene]-D-arabinitol Inner Salt]

- inhibitory activity against recombinant human MGA (in words) [5]: not effective inhibitors
Compound: O=S(=O)([O-])O[C@@H](CO)[C@H](O)C[S@+]1C[C@@H](O)[C@@H](O)[C@H]1CO [Compound 233, 1,4-Dideoxy-1,4-[[(2S,3S)-2,4-dihydroxy-3-(sulfooxy)butyl]-(S)-episulfoniumylidene]-D-lyxitol Inner Salt]

- inhibitory activity against recombinant human MGA (in words) [5]: not effective inhibitors
Compound: O=S(=O)([O-])O[C@@H](CO)[C@H](O)C[S@+]1C[C@H](O)[C@H](O)[C@H]1CO [Compound 234, 1,4-Dideoxy-1,4-[[(2S,3S)-2,4-dihydroxy-3-(sulfooxy)butyl]-(R)-episulfoniumylidene]-D-ribitol Inner Salt]
